# In patent US9359589B2, “Use of at least one chelating agent introduced into the culture medium of magnetotactic bacteria in order to stimulate the growth thereof” (UNIVERSITE PIERRE ET MARIE CURIE (PARIS 6), priority 2011, dated 2016):
# Legend:
# [1] = tested on: Magnetospirillum magneticum; experiment: Growth over time of magnetotactic bacteria in 10 ml tubes with chelating agent (absorbance, O.D. at 565 nm, D2-D9); format: cell-based
# Experimental: Cultures of Magnetospirillum magneticum were prepared as described in example 1. The bacteria were cultured in 10 milliliter tubes. A volume of 100 microliters of culture medium was inoculated, at time “D0” (Day 0), with 0.1×10^6 bacterial cells. The cultures in suspension were placed at ambient temperature (approximately 25° C.) and the growth of the bacteria over time was monitored by measuring O.D. at the wavelength of 565 nanometers.
# The following series of culture samples were prepared: • samples of control culture, comprising the bacterial cells in the culture medium free of chelating agent; • a series of culture samples containing the chelating agent rhodamine B, at increasing concentrations of 0.4 μM, 4 μM, 40 μm and 400 μM; • a series of culture samples containing the chelating agent ascorbic acid, at increasing concentrations of 0.4 μM, 4 μM, 40 μM and 400 μM; • a series of culture samples containing the chelating agent erythrosine, at increasing concentrations of 0.4 μM, 40 μM and 400 μM; • a series of culture samples containing the chelating agent folic acid, at increasing concentrations of 0.4 μM, 4 μM, 40 μM and 400 μM;
# The bacteria were cultured for 12 days in a tube and the absorbance over the whole of the spectrum ranging from 400 to 700 nanometers was measured, respectively, (i) on the second day (D2) after inoculation, (ii) on the third day (D3) after inoculation, (iii) on the fourth day (D4) after inoculation, (iv) on the seventh day (D7) after inoculation, (v) on the eighth day (D8) after inoculation and (vi) on the ninth day (D9) after inoculation. The magnetic moments of various suspensions of magnetotactic bacteria deposited on blotting paper were measured on days D7, D8 and D9.
# [2] = tested on: Magnetospirillum magneticum; experiment: Magnetic moment of suspensions of magnetotactic bacteria (SQUID, 500 Oe or 1000 Oe) on D7, D8, D9; format: cell-based
# Experimental: The magnetic moment of various suspensions of magnetotactic bacteria deposited on blotting paper, under the application of a magnetic field of 500 Oe or of 1000 Oe, was also measured. The magnetic moment was measured for 10 ml of suspension of magnetotactic bacteria harvested at various days of growth, centrifuged, and then resuspended in 100 μl of distilled water. These 100 μl containing the magnetotactic bacteria are then redeposited on nonmagnetic absorbent paper which itself is inserted into a capsule that is placed in the magnetometer in order to carry out the magnetic measurements. […]
# Cultures of Magnetospirillum magneticum were prepared as described in example 1. […] The cultures in suspension were placed at ambient temperature (approximately 25° C.) and the growth of the bacteria over time was monitored by measuring O.D. at the wavelength of 565 nanometers.
# The bacteria were cultured for 12 days in a tube and the absorbance over the whole of the spectrum ranging from 400 to 700 nanometers was measured, respectively, (i) on the second day (D2) after inoculation, (ii) on the third day (D3) after inoculation, (iii) on the fourth day (D4) after inoculation, (iv) on the seventh day (D7) after inoculation, (v) on the eighth day (D8) after inoculation and (vi) on the ninth day (D9) after inoculation. […]
structure (smiles),measurement,setting,value
O=C1O[C@H]([C@@H](O)CO)C(O)=C1O [ascorbic acid],effect on bacterial growth compared with rhodamine B,[1],similar
same,effect on cell growth at high concentration,[1]; 400 μM,rather unfavorable
same,effect on the growth of the magnetotactic bacteria (absorbance compared with cultures without the agent),"[1]; 0.4-400 μM, D2 to D9, 10 ml tubes",stimulates the growth
same,concentration giving the most pronounced effect on growth,[1]; after 4 days of culture,0.4 µM
same,"growth curves (fitted absorption, first 7 days) relative to bacteria cultured in the absence of the agent",[1]; all concentrations except 400 μM,above
same,period of culture during which the effects are greatest,[1]; exponential growth phase,first four days
same,concentration range of stimulated magnetosome production compared with rhodamine B,[2],wider concentration range
